In patent US20190375708A1 (VenatoRx Pharmaceuticals, Inc., priority 2018, published 2019):

Key:
[1] = test system: HBV replication in HepAD38 cells; assay: Anti-HBV replication assay in HepAD38 cells (QPCR of extracellular HBV DNA); format: cell-based, HBV (genotype D, serotype ayw); settings: Hepatitis B virus, 168 h, 7 days incubation, extracellular HBV DNA by QPCR, read-out: Anti-HBV EC50
How it was run: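 Stably transfected HepG2-derived HepAD38 cells express HBV (genotype D, ayw) once tetracycline is withdrawn. Compounds act for 7 days, after which secreted HBV DNA is quantified by QPCR relative to DMSO-treated wells.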

[2] = In vitro cytotoxicity assay (MTT cell viability) in HepG2 cells; format: cell-based, human; settings: human
How it was run: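 Viability measured by MTT conversion, absorbance at 492 nm, as percent of vehicle-treated wells. Compounds spanned 30 μM to 1.0 nM in half-log steps over a 7-day exposure of parental HepG2 cells; CC50 derived by 4-parameter curve fit.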

SMILES	EC50 [1] [nM]	CC50 at 7 days [2] [nM]
CNC(=O)[C@@H](NC(=O)C(=O)c1c(C)c(C(=O)Nc2ccc(F)c(C)c2)c(C)n1C)C(C)C [Example 108, (S)-N-(4-fluoro-3-methylphenyl)-1,2,4-trimethyl-5-(2-((3-methyl-1-(methylamino)-1-oxobutan-2-yl)amino)-2-oxoacetyl)-1H-pyrrole-3-carboxamide]	< 50	500 to 4990
CCCOC1(CNC(=O)C(=O)c2c(C)c(C(=O)Nc3ccc(F)c(C)c3)c(C)n2C)CCCCC1 [Example 336, N-(4-fluoro-3-methylphenyl)-1,2,4-trimethyl-5-(2-oxo-2-(((1-propoxycyclohexyl)methyl)amino)acetyl)-1H-pyrrole-3-carboxamide]	< 50	5000 to 30000
CNC(=O)C(=O)c1c(C)c(C(=O)Nc2ccc(F)c(C)c2)c(C)n1C [Example 242, N-(4-fluoro-3-methylphenyl)-1,2,4-trimethyl-5-(2-(methylamino)-2-oxoacetyl)-1H-pyrrole-3-carboxamide]	50 to 499	> 30000
Cc1noc([C@@H](C)NC(=O)C(=O)c2c(C)c(C(=O)Nc3ccc(F)c(F)c3)c3n2CCCC3)n1 [Example 454, (R)-N-(3,4-difluorophenyl)-2-methyl-3-(2-((1-(3-methyl-1,2,4-oxadiazol-5-yl)ethyl)amino)-2-oxoacetyl) 5,6,7,8-tetrahydroindolizine-1-carboxamide]	50 to 499	> 30000
Cc1cc(NC(=O)c2c(C)c(C(=O)C(=O)N[C@@H](C)CCO)n(C)c2C)ccc1F [Example 142, (S)-N-(4-fluoro-3-methylphenyl)-5-(2-((4-hydroxybutan-2-yl)amino)-2-oxoacetyl)-1,2,4-trimethyl-1H-pyrrole-3-carboxamide]	< 50	> 30000
CC(=O)N[C@H]1C[C@H](NC(=O)C(=O)c2c(C)c(C(=O)Nc3ccc(F)c(C)c3)c(C)n2C)C1 [Example 670, 5-(2-(((1r,3r)-3-acetamidocyclobutyl)amino)-2-oxoacetyl)-N-(4-fluoro-3-methylphenyl)-1,2,4-trimethyl-1H-pyrrole-3-carboxamide]	< 50	> 30000
Cc1cc(NC(=O)c2c(C)c(C(=O)C(=O)N[C@@H]3CCOC[C@H]3O)n(C)c2C)ccc1F [Example 149, N-(4-fluoro-3-methylphenyl)-5-(2-(((3S,4R)-3-hydroxytetrahydro-2H-pyran-4-yl)amino)-2-oxoacetyl)-1,2,4-trimethyl-1H-pyrrole-3-carboxamide]	< 50	> 30000
Cc1cc(NC(=O)c2c(C)c(C(=O)C(=O)N[C@H]3CC[C@@H](CO)CC3)n(C)c2C)ccc1F [Example 676, N-(4-fluoro-3-methylphenyl)-5-(2-(((1s,4s)-4-(hydroxymethyl)cyclohexyl)amino)-2-oxoacetyl)-1,2,4-trimethyl-1H-pyrrole-3-carboxamide]	< 50	> 30000
O=C(N[C@H]1CCC[C@H]1O)C(=O)c1c(Cl)c(C(=O)Nc2ccc(F)c(F)c2)c2n1CCCC2 [Example 519, 2-chloro-N-(3,4-difluorophenyl)-3-(2-(((1S,2R)-2-hydroxycyclopentyl)amino)-2-oxoacetyl)-5,6,7,8-tetrahydroindoliznie-1-carboxamide]	50 to 499	5000 to 30000
Cc1c(C(=O)Nc2ccc(F)nc2)c(C)n(C)c1C(=O)C(=O)N[C@H](C)C(F)(F)F [Example 166, (R)-N-(6-fluoropyridin-3-yl)-1,2,4-trimethyl-5-(2-oxo-2-((1,1,1-trifluoropropan-2-yl)amino)acetyl)-1H-pyrrole-3-carboxamide]	< 50	> 30000
COCC(C)(C)NC(=O)C(=O)c1c(C)c(C(=O)Nc2cnc(F)c(C)c2)c(C)n1CCF [Example 226, N-(6-fluoro-5-methylpyridin-3-yl)-1-(2-fluoroethyl)-5-(2-((1-methoxy-2-methylpropan-2-yl)amino)-2-oxoacetyl)-2,4-dimethyl-1H-pyrrole-3-carboxamide]	500 to 1000	> 30000
CNC(=O)[C@H](NC(=O)C(=O)c1c(C)c(C(=O)Nc2ccc(F)c(C)c2)c(C)n1C)[C@@H](C)O [Example 62, N-(4-fluoro-3-methylphenyl)-5-(2-(((2R,3R)-3-hydroxy-1-(methylmaino)-1-oxobutan-2-yl)amino)-2-oxoacetyl)-1,2,4-trimethyl-1H-pyrrole-3-carboxamide]	< 50	> 30000
COC(=O)[C@H](NC(=O)C(=O)c1c(C)c(C(=O)Nc2ccc(F)c(C)c2)c(C)n1C)C1CCCCC1 [Example 56, methyl (R)-2-cyclohexyl-2-(2-(4-((4-fluoro-3-methylphenyl)carbamoyl)-1,3,5-trimethyl-1H-pyrrol-2-yl)-2-oxoacetamido)acetate]	< 50	500 to 4990
Cn1cc(C(=O)Nc2ccc(F)c(Cl)c2)cc1C(=O)C(=O)NOC(C)(C)C [Example 21, 5-(2-(tert-butoxyamino)-2-oxoacetyl)-N-(3-chloro-4-fluorophenyl)-1-methyl-1H-pyrrole-3-carboxamide]	50 to 499	> 30000
Cc1cc(NC(=O)c2c(C)c(C(=O)C(=O)NCCn3ccnc3)n(C)c2C)ccc1F [Example 346, 5-(2-((2-(1H-imidazol-1-yl)ethyl)amino)-2-oxoacetyl)-N-(4-fluoro-3-methylphenyl)-1,2,4-trimethyl-1H-pyrrole-3-carboxamide]	< 50	> 30000
Cc1c(C(=O)Nc2ccnc(F)c2)c(C)n(C)c1C(=O)C(=O)NC12CC3CC(CC1C3)C2 [Example 90, N-(2-fluoropyridin-4-yl)-5-(2-(((2R,3as,5S,6as)-hexahydro-2,5-methanopentalen-3a(1H)-yl)amino)-2-oxoacetyl)-1,2,4-trimethyl-1H-pyrrole-3-carboxamide]	< 50	5000 to 30000
Cc1cc(NC(=O)c2c(C)c(C(=O)C(=O)NC34CC5CC(CC(O)(C5)C3)C4)n(CCO)c2C)ccc1F [Example 73, N-(4-fluoro-3-methylphenyl)-5-(2-(((1r,3s,5R,7S)-3-hydroxyadamantan-1-yl)amino)-2-oxoacetyl)-1-(2-hydroxyethyl)-2,4-dimethyl-1H-pyrrole-3-carboxamide]	> 1000	> 30000
COC(=O)[C@@H](NC(=O)C(=O)c1c(C)c(C(=O)Nc2ccc(F)c(C)c2)c(C)n1C)C1CCCCC1 [Example 55, methyl (S)-2-cyclohexyl-2-(2-(4-((4-fluoro-3-methylphenyl)carbamoyl)-1,3,5-trimethyl-1H-pyrrol-2-yl)-2-oxoacetamido)acetate]	500 to 1000	500 to 4990
Cc1c(C(=O)Nc2ccnc(F)c2)c(C)n(C)c1C(=O)C(=O)N[C@H]1CCC[C@@H]1O [Example 134, N-(2-fluoropyridin-4-yl)-5-(2-(((1S,2S)-2-hydroxycyclopentyl)amino)-2-oxoacetyl)-1,2,4-trimethyl-1H-pyrrole-3-carboxamide]	50 to 499	> 30000
Cc1cc(NC(=O)c2c(C)c(C(=O)C(=O)NC(C)(C)C(=O)N3CCC(O)CC3)n(C)c2C)ccc1F [Example 597, N-(4-fluoro-3-methylphenyl)-5-(2-((1-(4-hydroxypiperidin-1-yl)-2-methyl-1-oxopropan-2-yl)amino)-2-oxoacetyl)-1,2,4-trimethyl-1H-pyrrole-3-carboxamide]	< 50	> 30000
CC(C)(CO)CNC(=O)C(=O)c1c(Cl)c(C(=O)Nc2ccc(F)c(Cl)c2)c2n1CCC2 [Example 556, 6-chloro-N-(3-chloro-4-fluorophenyl)-5-(2-((3-hydroxy-2,2-dimethylpropyl)amino)-2-oxoacetyl)-2,3-dihydro-1H-pyrrolizine-7-carboxamide]	50 to 499	5000 to 30000
Cc1cc(NC(=O)c2c(C)c(C(=O)C(=O)N[C@@H]3CCC[C@H](O)C3)n(C)c2C)ccc1F [Example 330, N-(4-fluoro-3-methylphenyl)-5-(2-(((1R,3S)-3-hydroxycyclohexyl)amino)-2-oxoacetyl)-1,2,4-trimethyl-1H-pyrrole-3-carboxamide]	< 50	> 30000
O=C(NC1(CO)CCC1)C(=O)c1c(Cl)c(C(=O)Nc2ccc(F)c(F)c2)c2n1CCOC2 [Example 584, 7-chloro-N-(3,4-difluorophenyl)-6-(2-((1-(hydroxymethyl)cyclobutyl)amino)-2-oxoacetyl)-3,4-dihydro-1H-pyrrolo[2,1-c][1,4]oxazine-8-carboxamide]	< 50	5000 to 30000
Cc1cc(NC(=O)c2c(C)c(C(=O)C(=O)N[C@@H](CO)C(N)=O)n(C)c2C)ccc1F [Example 41, (S)-5-(2-((1-amino-3-hydroxy-1-oxopropan-2-yl)amino)-2-oxoacetyl)-N-(4-fluoro-3-methylphenyl)-1,2,4-trimethyl-1H-pyrrole-3-carboxamide]	< 50	500 to 4990
O=C(NC1(CO)CC1)C(=O)c1c(Cl)c(C(=O)Nc2ccc(F)c(F)c2)c2n1CCCC2 [Example 502, 2-chloro-N-(3,4-difluorophenyl)-3-(2-((1-(hydroxymethyl)cyclopropyl)amino)-2-oxoacetyl)-5,6,7,8-tetrahydroindolizine-1-carboxamide]	50 to 499	> 30000
CNC(=O)[C@@H](NC(=O)C(=O)c1c(C)c(C(=O)Nc2ccc(F)c(C)c2)c(C)n1C)[C@H](C)O [Example 58, N-(4-fluoro-3-methylphenyl)-5-(2-(((2S,3S)-3-hydorxy-1-(methylamino)-1-oxobutan-2-yl)amino)-2-oxoacetyl)-1,2,4-trimethyl-1H-pyrrole-3-carboxamide]	500 to 1000	> 30000
